# Measured values from US9469615B2, “Quinoxalines and AZA-quinoxalines as CRTH2 receptor modulators” (Merck Sharp & Dohme Corp., priority 2010, dated 2016).
# pKi: −log10 of the molar value.
# Target: T1, hCRTH2 (Homo sapiens, UniProt Q9Y5Y4)
# T1 construct: expressed in transfected cells; host or cells: HEK (human embryonic kidney) cells expressing hCRTH2; membrane preparation
# T1 sequence (Q9Y5Y4 1-395): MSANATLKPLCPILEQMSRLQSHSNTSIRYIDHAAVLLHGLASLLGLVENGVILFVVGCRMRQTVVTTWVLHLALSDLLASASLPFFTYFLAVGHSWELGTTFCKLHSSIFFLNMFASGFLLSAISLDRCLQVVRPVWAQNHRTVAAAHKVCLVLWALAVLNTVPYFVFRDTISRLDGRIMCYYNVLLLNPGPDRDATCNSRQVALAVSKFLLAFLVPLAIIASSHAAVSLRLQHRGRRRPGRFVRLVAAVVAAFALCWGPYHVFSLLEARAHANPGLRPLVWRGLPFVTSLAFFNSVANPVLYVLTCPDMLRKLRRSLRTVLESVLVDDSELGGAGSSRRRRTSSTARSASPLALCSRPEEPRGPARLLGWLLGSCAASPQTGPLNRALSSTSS
# Experiment: Radioligand binding assay ([3H]PGD2 competition, HEK-hCRTH2 membranes)
# Conditions: [3H]PGD2 competition, Table B
# Summary of the method: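 Competition against 3.0 nM [3H]PGD2 was run for 60 min at room temperature in pH 7.4 Tris-HCl buffer with EDTA, 2 mM MnCl2 and 1% DMSO, using 8-20 μg HEK-hCRTH2 membrane protein. 10 μM PGD2 set non-specific binding; filter-bound counts were read by scintillation.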
row,Compound,pKi
1,"O=C(O)CCCCc1nc2cc(C(=O)N[C@H]3CCCc4cc(F)ccc43)ccc2nc1-c1ccccc1 [compound 385, (S)-5-(7-((6-fluoro-1,2,3,4-tetrahydronaphthalen-1-yl)carbamoyl)-3-phenylquinoxalin-2-yl)pentanoic acid]",7.70 to 8.68
2,"O=C(O)CCCCc1nc2cc(C(=O)N[C@@H]3CCCc4cc(Cl)ccc43)ccc2nc1-c1ccccc1 [compound 386, (R)-5-(7-((6-chloro-1,2,3,4-tetrahydronaphthalen-1-yl)carbamoyl)-3-phenylquinoxalin-2-yl)pentanoic acid]",8.70 to 10.00
3,"O=C(O)CCCCc1nc2cc(C(=O)N[C@H]3CCCc4cc(Cl)ccc43)ccc2nc1-c1ccccc1 [compound 387, (S)-5-(7-((6-chloro-1,2,3,4-tetrahydronaphthalen-1-yl)carbamoyl)-3-phenylquinoxalin-2-yl)pentanoic acid]",7.70 to 8.68
4,"O=C(O)CCCCc1nc2cc(C(=O)N[C@H]3CCCc4ccccc43)ccc2nc1-c1ccccc1 [compound 388, (S)-5-(3-phenyl-7-((1,2,3,4-tetrahydronaphthalen-1-yl)carbamoyl)quinoxalin-2-yl)pentanoic acid]",7.70 to 8.68
5,"COc1cccc(C2CN(C(=O)c3ccc4nc(-c5ccccc5)c(CCCCC(=O)O)nc4c3)C2)c1 [compound 390, 5-(7-(3-(3-methoxyphenyl)azetidine-1-carbonyl)-3-phenylquinoxalin-2-yl)pentanoic acid]",8.70 to 10.00
6,"CC(CCCc1nc2cc(C(=O)N[C@H](C)c3ccc(Cl)cc3)ccc2nc1-c1ccc(Cl)cc1)C(=O)O (stereo partly drawn) [compound 391, 5-(3-(4-chlorophenyl)-7-(((R)-1-(4-chlorophenyl)ethyl)carbamoyl)quinoxalin-2-yl)-2-methylpentanoic acid]",7.70 to 8.68
7,"Cc1ccc(CNC(=O)c2ccc3nc(-c4ccc(Cl)cc4)c(CC4CCC(C(=O)O)C4)nc3c2)cc1 (stereo not drawn) [compound 393, 3-((3-(4-chlorophenyl)-7-((4-methylbenzyl)carbamoyl)quinoxalin-2-yl)methyl)cyclopentane-carboxylic acid]",7.70 to 8.68
8,"O=C(N[C@H](c1ccccc1)C(F)(F)F)c1ccc2nc(-c3ccc(Cl)cc3)c(CC3CCC(C(=O)O)C3)nc2c1 (stereo partly drawn) [compound 395, 3-((3-(4-chlorophenyl)-7-(((R)-2,2,2-trifluoro-1-phenylethyl)carbamoyl)quinoxalin-2-yl)methyl)cyclopentane-carboxylic acid]",7.70 to 8.68
9,"O=C(O)C1CCC(Cc2nc3cc(C(=O)N4CC(c5ccc(F)cc5)C4)ccc3nc2-c2ccc(Cl)cc2)C1 (stereo not drawn) [compound 396, 3-((3-(4-chlorophenyl)-7-(3-(4-fluorophenyl)azetidine-1-carbonyl)quinoxalin-2-yl)methyl)cyclopentanecarboxylic acid]",7.70 to 8.68
10,"CC(C)[C@H](NC(=O)c1ccc2nc(-c3ccc(Cl)cc3)c(CCCCC(=O)O)nc2c1)c1ccc(F)cc1 [compound 402, (S)-5-(3-(4-chlorophenyl)-7-((1-(4-fluorophenyl)-2-methylpropyl)carbamoyl)quinoxalin-2-yl) pentanoic acid]",7.70 to 8.68
11,"C[C@H](NC(=O)c1ccc2nc(-c3ccc(Cl)cc3)c(CC3CCC(C(=O)O)C3)nc2c1)c1ccccc1 (stereo partly drawn) [compound 404, 3-((3-(4-chlorophenyl)-7-(((S)-1-phenylethyl)carbamoyl)quinoxalin-2-yl)methyl)cyclopentane-carboxylic acid]",7.70 to 8.68
12,"O=C(N[C@@H](c1ccc(Cl)cc1)C(F)(F)F)c1ccc2nc(-c3ccc(Cl)cc3)c(CC3CCC(C(=O)O)C3)nc2c1 (stereo partly drawn) [compound 406, 3-((3-(4-chlorophenyl)-7-(((S)-1-(4-chlorophenyl)-2,2,2-trifluoroethyl)carbamoyl)quinoxalin-2-yl)methyl)cyclopentane-carboxylic acid]",7.70 to 8.68
13,"C[C@H](NC(=O)c1ccc2nc(-c3ccc(Cl)cc3)c(CC3CCC(C(=O)O)C3)nc2c1)c1ccc(F)cc1 (stereo partly drawn) [compound 407, 3-((3-(4-chlorophenyl)-7-(((S)-1-(4-fluorophenyl)ethyl)carbamoyl)quinoxalin-2-yl)methyl)cyclopentane-carboxylic acid]",7.70 to 8.68
14,"CC(CCCc1nc2cc(C(=O)N[C@H](C)c3ccc(F)cc3)ccc2nc1-c1ccc(Cl)cc1)C(=O)O (stereo partly drawn) [compound 408, 5-(3-(4-chlorophenyl)-7-(((R)-1-(4-fluorophenyl)ethyl)carbamoyl)quinoxalin-2-yl)-2-methylpentanoic acid]",8.70 to 10.00

# Now from value to compound:
row,pKi,Compound
1,8.70 to 10.00,"COc1ccc(C2CN(C(=O)c3ccc4nc(-c5ccccc5)c(CCCCC(=O)O)nc4c3)C2)cc1 [compound 389, 5-(7-(3-(4-methoxyphenyl)azetidine-1-carbonyl)-3-phenylquinoxalin-2-yl)pentanoic acid]"
2,7.70 to 8.68,"CC(CCCc1nc2cc(C(=O)N[C@@H](C)c3ccc(Cl)cc3)ccc2nc1-c1ccc(Cl)cc1)C(=O)O (stereo partly drawn) [compound 392, 5-(3-(4-chlorophenyl)-7-(((S)-1-(4-chlorophenyl)ethyl)carbamoyl)quinoxalin-2-yl)-2-methylpentanoic acid]"
3,7.70 to 8.68,"C[C@@H](NC(=O)c1ccc2nc(-c3ccc(Cl)cc3)c(CC3CCC(C(=O)O)C3)nc2c1)c1ccccc1 (stereo partly drawn) [compound 394, 3-((3-(4-chlorophenyl)-7-(((R)-1-phenylethyl)carbamoyl)quinoxalin-2-yl)methyl)cyclopentane-carboxylic acid]"
4,7.70 to 8.68,"O=C(O)C1CCC(Cc2nc3cc(C(=O)N4CC(c5cccc(F)c5)C4)ccc3nc2-c2ccc(Cl)cc2)C1 (stereo not drawn) [compound 397, 3-((3-(4-chlorophenyl)-7-(3-(3-fluorophenyl)azetidine-1-carbonyl)quinoxalin-2-yl)methyl)cyclopentane-carboxylic acid]"
5,7.70 to 8.68,"O=C(O)C1CCC(Cc2nc3cc(C(=O)N4CC(c5ccc(F)c(F)c5)C4)ccc3nc2-c2ccc(Cl)cc2)C1 (stereo not drawn) [compound 398, 3-((3-(4-chlorophenyl)-7-(3-(3,4-difluorophenyl)azetidine-1-carbonyl)quinoxalin-2-yl)methyl)cyclopentane-carboxylic acid]"
6,7.70 to 8.68,"CC(C)[C@@H](NC(=O)c1ccc2nc(-c3ccc(Cl)cc3)c(CCCCC(=O)O)nc2c1)c1ccc(F)cc1 [compound 399, (R)-5-(3-(4-chlorophenyl)-7-((1-(4-fluorophenyl)-2-methylpropyl)carbamoyl)quinoxalin-2-yl) pentanoic acid]"
7,7.70 to 8.68,"N#Cc1ccc(C2CN(C(=O)c3ccc4nc(-c5ccc(Cl)cc5)c(CC5CCC(C(=O)O)C5)nc4c3)C2)cc1 (stereo not drawn) [compound 400, 3-((3-(4-chlorophenyl)-7-(3-(4-cyanophenyl)azetidine-1-carbonyl)quinoxalin-2-yl)methyl)cyclopentane-carboxylic acid]"
8,6.70 to 7.70,O=C(N[C@H](c1ccc(Cl)cc1)C(F)(F)F)c1ccc2nc(-c3ccc(Cl)cc3)c(CC3CCC(C(=O)O)C3)nc2c1 (stereo partly drawn) [compound 401]
9,8.70 to 10.00,"C[C@@H](NC(=O)c1ccc2nc(-c3ccc(Cl)cc3)c(CCCCC(=O)O)nc2c1)c1ccc(C#N)cc1 [compound 403, (R)-5-(3-(4-chlorophenyl)-7-((1-(4-cyanophenyl)ethyl)carbamoyl)quinoxalin-2-yl)pentanoic acid]"
10,7.70 to 8.68,"O=C(N[C@@H](c1ccccc1)C(F)(F)F)c1ccc2nc(-c3ccc(Cl)cc3)c(CC3CCC(C(=O)O)C3)nc2c1 (stereo partly drawn) [compound 405, 3-((3-(4-chlorophenyl)-7-(((S)-2,2,2-trifluoro-1-phenylethyl)carbamoyl)quinoxalin-2-yl)methyl)cyclopentane-carboxylic acid]"
